According to patent US20180333382A1, “PHARMACEUTICAL COMPOSITIONS COMPRISING DGLA AND USE OF SAME” (DS Biopharma Limited, priority 2017, published 2018):

What was measured:
Assay type in all cases: in vivo, human
[1] = Phase II study: safety (adverse events); details: oral, 2 g once daily for 8 weeks
Excerpt: Subjects visited the clinic on 6 occasions: at screening, baseline, week 2, week 4, week 8 (end of treatment/early termination) and week 10 (follow-up). All subjects exited the study at the week 10 visit. The primary efficacy variable was the proportion of patients achieving an IGA of 0 (clear) or 1 (almost clear), and a decrease of at least 2 points in IGA at week 8. Secondary efficacy variables included: IGA at other visits, pruritus (obtained from the SCORAD visual analog scale), EASI, BSA, POEM, DLQI, SCORAD and TEWL (for selected sites only). Safety was assessed through adverse events, physical examination, vital signs and safety laboratory tests (including pregnancy tests for women of childbearing potential). Pharmacokinetic samples were obtained at Baseline (Day 0), week 4 and week 8 visits in order to measure total and free DGLA plasma trough levels. Separate plasma samples were retained for later analysis of total fatty acid profile and interleukin profile.
Laboratory tests were performed at screening, Day 0, Week 4 and Week 8. If Week 8 results indicated a clinically significant change from baseline, laboratory tests were also performed at Week 10. […]
Efficacy was evaluated on the basis of the ITT population and analyses were performed based on the randomized treatment and not on the treatment received. […]

eosinophil = assay: Phase II study: eosinophil concentrations by ethnicity and responder status
Experimental: Laboratory tests were performed at screening, Day 0, Week 4 and Week 8. If Week 8 results indicated a clinically significant change from baseline, laboratory tests were also performed at Week 10. The tests included urinalysis, hematology with differential and coagulation testing, a standard chemistry panel (chemistry includes liver function tests and cholesterol), coagulation, serum pregnancy test (screening and week 8 early termination visits) for women of childbearing potential (WOCBP). At baseline (Day 0), week 2, week 4 and week 10 visits, a urine pregnancy test was performed for women of childbearing potential (conducted at the investigator site).
Eosinophils are a type of white blood cell that play an important role in the body's response to allergic reactions, asthma, and infection with parasites. Eosinophils usually account for less than 7% of the circulating white blood cells (100 to 500 eosinophils per microliter of blood). These cells have a role in the protective immunity against certain parasites but also contribute to the inflammation that occurs in allergic disorders.
FIG. 30A-B. In particular, 56% of DS107-treated African America patients were classified as Responders, versus only 7% of Caucasian patients. […]

[2] = system: patients with moderate to severe atopic dermatitis having high eosinophil levels; assay: Post hoc stratification of the phase II study: subgroup with high eosinophil > 0.3 × 10^9/L; details: daily, 8 weeks
Experimental: Further to the randomized, double-blind, placebo-controlled, phase II study of Example 2 above, a post hoc stratification analysis was performed using the results of that study to assess the efficacy of orally administered DS107G (DGLA) to patients with moderate to severe atopic dermatitis having normal eosinophil levels of less than about 0.3×10^9/L compared to the same population receiving placebo and/or to the total study population. The primary objective of the post hoc stratification study was to compare the efficacy of orally administered DS107G capsules, versus placebo, in the treatment of adult patients with moderate to severe atopic dermatitis having normal eosinophil levels of less than about 0.3×10^9/L. The secondary objective was to compare the efficacy of orally administered DS107G capsules in the treatment of adult patients with moderate to severe atopic dermatitis having normal eosinophil levels of less than about 0.3×10^9/L versus the total study population. Unless stated otherwise, all elements of the post hoc stratification analysis were the same as those of the phase II study described in Example 2 above.
A comparison of the total study population (see column “DS107 Phase 2a I.T.T.”), patients having normal eosinophil levels, and patients having high eosinophil levels separated by patients who received DS107 or placebo is shown in Table 32 below.

SMILES: CCCCC/C=C\C/C=C\C/C=C\CCCCCCC(=O)O [DS107G, Dihomo gamma linolenic acid]
- drug related Serious Adverse Events [1]: no drug related Serious Adverse Events
- tolerability [1]: very well tolerated
- eosinophil concentrations (eosinophil; African American vs Caucasian patients, each time point measured): statistically significant reductions
- eosinophil concentration (eosinophil; treated Responders vs Non-responders, all time points): statistically significant decrease
- BSA Change from Baseline [2]: −14.9%
- EASI Percentage Change from Baseline [2]: −20.1%
- EASI-50 (%) [2]: 22.7%
- EASI-75 (%) [2]: 9.1%
- IGA responder (%) [2]: 0%
- Pruritus Percentage Change from Baseline [2]: −6.5%
